Data reported in patent US20120107385A1, “METHOD OF TREATING CONDITIONS ASSOCIATED WITH OVERACTIVE BLADDER” (priority 2010, published 2012).

Test: Plasma oxybutynin and N-desethyloxybutynin following oral and intravaginal administration in dogs (14 day study)
Method: A study was conducted to determine the levels of oxybutynin and its active metabolite, N-desethyloxybutynin, present in plasma following oral and intravaginal administration of oxybutynin in dogs.
A 14 day study was conducted, where 8 young adult females were randomly assigned to 4 groups of 2 dogs each.

CCN(CC)CC#CCOC(=O)C(O)(c1ccccc1)C1CCCCC1 (centres unmarked) [oxybutynin, 4-diethylaminobut-2-ynyl2-cyclohexyl-2-hydroxy-2-phenyl-ethanoate]
plasma level of oxybutynin at 8 h or more after oral dosing (oral 10 mg/day): ≤ 2.75 ng/mL | time after dosing at which Cmax of oxybutynin was achieved (plasma): 3 h
